From patent US20160113932A1, “TREATMENT OF CANCERS USING PI3 KINASE ISOFORM MODULATORS” (INFINITY PHARMACEUTICALS, INC., priority 2013, published 2016)

Legend:
[1] = molecular target: PI3K δ (Homo sapiens, UniProt O00329); assay: PI3K lipid kinase inhibition assay (TLC or HTRF), PI3K δ; type: biochemical; design: purchased Upstate; conditions: In Vitro
From the text: (§1) Other commercial kits or systems for assaying PI3K activities are available. […] An exemplary system is PI 3-Kinase (human) HTRF™ Assay from Upstate.

[2] = molecular target: T1, PI3K α (Homo sapiens, UniProt P42336); assay: PI3K lipid kinase inhibition assay (TLC or HTRF), PI3K α; type: biochemical; conditions: In Vitro
T1 construct: purchased Upstate
From the text: as §1

[3] = molecular target: T2, PI3K γ (Homo sapiens, UniProt P48736); assay: PI3K lipid kinase inhibition assay (TLC or HTRF), PI3K γ; type: biochemical; conditions: In Vitro
T2 construct: purchased Sigma
From the text: as §1

[4] = molecular target: T3, PI3K β (Homo sapiens, UniProt P42338); assay: PI3K lipid kinase inhibition assay (TLC or HTRF), PI3K β; type: biochemical; conditions: In Vitro
T3 construct: purchased Upstate
From the text: as §1

[5] = tested on: RL; assay: Combination with BTK inhibitor, 72 h ATPLite, 6x6 dose matrix (follicular lymphoma); type: cell-based; conditions: in combination with Compound 292
Description: (§2) The method is described as follows. Cells are thawed from a liquid nitrogen preserved state. Once cells have been expanded and divide at their expected doubling times, screening begins. Cells are seeded in growth media in either black 1536-well or 384-well tissue culture treated plates. […] These Tzero (T0) plates are read using ultra-sensitive luminescence on Envision plate readers (Perkin Elmer). […] All data points are collected via automated processes, quality controlled and analyzed using Zalicus software.
(§3) I ranges from 0% (when T=V) to 100% (when T=0). […] The measure of effect in the experiment can be the inhibition of cellular response relative to the untreated level (vehicle alone). For untreated vehicle and treated levels V and T, a fractional inhibition 1=1−T/V is calculated. The inhibition ranges from 0% at the untreated level to 100% when T=0 Inhibition levels are negative for agents that actually increase levels. Other effect measures, such as an activity ratio r=T/V may be more appropriate for some assays. When activity ratios (e.g, fold increase over […] control) are being used, the effect can be measured using an induction I=1n(T/V). With this definition, all effect expressions are the same as for inhibition.
(§4) Growth Inhibition (GI) is used as a measure of cell viability. […] A GI reading of 100% represents complete growth inhibition-T72 compound-treated and T0 vehicle signals are matched. […] A GI reading of 200% represents complete death of all cells in the culture well. Compounds reaching an activity plateau of GI 200% are considered cytotoxic. GI is calculated by applying the following test and equation: […]
(§5) Combination analysis data were collected in a 6×6 dose matrix. Synergy is calculated by comparing a combination's response to those of its single compound, against the drug-with-itself dose-additive reference model. Deviations from dose additivity may be assessed visually on an isobologram or numerically with a Combination Index (CI). […] Additive effect is CI=1.0. […] Antagonistic effect is CI>1.0.
(§6) To measure combination effects in excess of Loewe additivity, a scalar measure to characterize the strength of synergistic interaction termed the Synergy Score is devised. The Synergy Score is calculated as: […]
(§7) The fractional inhibition for each component agent and combination point in the matrix is calculated relative to the median of all vehicle-treated control wells. The Synergy Score equation integrates the experimentally-observed activity volume at each point in the matrix in excess of a model surface numerically derived from the activity of the component agents using the Loewe model for additivity. Additional terms in the Synergy Score equation (above) are used to normalize for various dilution factors used for individual agents and to allow for comparison of synergy scores across an entire experiment. The inclusion of positive inhibition gating or an Idata multiplier removes noise near the zero effect level, and biases results for synergistic interactions at that occur at high activity levels.
(§8) Loewe Volume (Loewe Vol) is used to assess the overall magnitude of the combination interaction in excess of the Loewe additivity model. Loewe Volume is particularly useful when distinguishing synergistic increases in a phenotypic activity (positive Loewe Volume) versus synergistic antagonisms (negative Loewe Volume). […] This model defines additivity as a non-synergistic combination interaction where the combination dose matrix surface should be indistinguishable from either drug crossed with itself.

[6] = tested on: Farage; conditions: in combination with Compound 292
Description: as §2, §3, §4, §5, §6, §7, §8

[7] = tested on: OCI-Ly7; conditions: in combination with Compound 292
Description: as §2, §3, §4, §5, §6, §7, §8

[8] = tested on: WSU-NHL; conditions: in combination with Compound 292
Description: as §2, §3, §4, §5, §6, §7, §8

[9] = tested on: DOHH-2; conditions: in combination with Compound 292
Description: as §2, §3, §4, §5, §6, §7, §8

[10] = tested on: OPM-2; conditions: in combination with Compound 292
Description: as §2, §3, §4, §5, §6, §7, §8

[11] = tested on: SU-DHL-10-epst; conditions: in combination with Compound 292
Description: as §2, §3, §4, §5, §6, §7, §8

[12] = tested on: KARPAS-299; conditions: in combination with Compound 292
Description: as §2, §3, §4, §5, §6, §7, §8

[13] = tested on: Jeko-1; conditions: in combination with Compound 292
Description: as §2, §3, §4, §5, §6, §7, §8

[14] = tested on: GRANTA-519; conditions: in combination with Compound 292
Description: as §2, §3, §4, §5, §6, §7, §8

[15] = tested on: KARPAS-422; conditions: in combination with Compound 292
Description: as §2, §3, §4, §5, §6, §7, §8

[16] = tested on: Mino; conditions: in combination with Compound 292
Description: as §2, §3, §4, §5, §6, §7, §8

[17] = tested on: NCI-H929; conditions: in combination with Compound 292
Description: as §2, §3, §4, §5, §6, §7, §8

[18] = tested on: U-2932; conditions: in combination with Compound 292
Description: as §2, §3, §4, §5, §6, §7, §8

[19] = tested on: HBL-1; conditions: in combination with Compound 292
Description: as §2, §3, §4, §5, §6, §7, §8

[20] = tested on: OCI-LY3; conditions: in combination with Compound 292
Description: as §2, §3, §4, §5, §6, §7, §8

[21] = tested on: SU-DHL-4-epst; conditions: in combination with Compound 292
Description: as §2, §3, §4, §5, §6, §7, §8

[22] = tested on: TMD8; conditions: in combination with Compound 292
Description: as §2, §3, §4, §5, §6, §7, §8

[23] = tested on: HH; conditions: in combination with Compound 292
Description: as §2, §3, §4, §5, §6, §7, §8

[24] = tested on: RPMI-8226; assay: Combination with BTK inhibitor, 72 h ATPLite, 6x6 dose matrix (multiple myeloma); type: cell-based; conditions: in combination with Compound 292
Description: as §2, §3, §4, §5, §6
The fractional inhibition for each component agent and combination point in the matrix is calculated relative to the median of all vehicle-treated control wells. The Synergy Score equation integrates the experimentally-observed activity volume at each point in the matrix in excess of a model surface numerically derived from the activity of the component agents using the Loewe model for additivity. […]

T2 sequence (P48736 whole entry): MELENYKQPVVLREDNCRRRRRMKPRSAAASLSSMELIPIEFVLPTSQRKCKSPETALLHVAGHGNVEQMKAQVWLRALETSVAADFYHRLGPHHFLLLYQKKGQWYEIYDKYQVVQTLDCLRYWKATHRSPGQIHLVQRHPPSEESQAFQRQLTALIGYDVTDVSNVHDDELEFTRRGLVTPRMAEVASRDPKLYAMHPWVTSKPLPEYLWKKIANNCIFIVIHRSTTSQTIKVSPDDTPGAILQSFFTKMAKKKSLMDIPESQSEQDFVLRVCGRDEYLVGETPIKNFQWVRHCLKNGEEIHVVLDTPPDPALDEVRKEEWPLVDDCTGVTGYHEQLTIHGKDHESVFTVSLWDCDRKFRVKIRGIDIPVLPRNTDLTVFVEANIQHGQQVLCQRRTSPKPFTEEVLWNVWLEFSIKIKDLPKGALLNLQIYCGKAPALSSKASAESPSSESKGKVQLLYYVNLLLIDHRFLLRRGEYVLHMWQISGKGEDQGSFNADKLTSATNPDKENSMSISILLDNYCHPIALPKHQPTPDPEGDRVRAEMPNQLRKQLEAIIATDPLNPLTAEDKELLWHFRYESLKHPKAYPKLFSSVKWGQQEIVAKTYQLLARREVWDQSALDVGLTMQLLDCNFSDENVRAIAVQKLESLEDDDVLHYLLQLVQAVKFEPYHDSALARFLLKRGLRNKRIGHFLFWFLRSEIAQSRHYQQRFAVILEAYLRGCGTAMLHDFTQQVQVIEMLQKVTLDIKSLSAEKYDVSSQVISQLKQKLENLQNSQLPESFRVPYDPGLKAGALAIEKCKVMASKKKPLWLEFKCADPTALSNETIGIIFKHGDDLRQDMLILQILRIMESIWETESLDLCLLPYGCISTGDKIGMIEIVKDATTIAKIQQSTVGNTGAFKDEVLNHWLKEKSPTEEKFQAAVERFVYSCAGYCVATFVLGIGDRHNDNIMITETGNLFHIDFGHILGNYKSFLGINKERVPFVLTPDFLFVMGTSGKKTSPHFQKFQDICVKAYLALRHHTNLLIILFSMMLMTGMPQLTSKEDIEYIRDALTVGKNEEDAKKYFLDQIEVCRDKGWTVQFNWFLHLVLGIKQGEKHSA
PI3K δ, sequence (O00329 whole entry): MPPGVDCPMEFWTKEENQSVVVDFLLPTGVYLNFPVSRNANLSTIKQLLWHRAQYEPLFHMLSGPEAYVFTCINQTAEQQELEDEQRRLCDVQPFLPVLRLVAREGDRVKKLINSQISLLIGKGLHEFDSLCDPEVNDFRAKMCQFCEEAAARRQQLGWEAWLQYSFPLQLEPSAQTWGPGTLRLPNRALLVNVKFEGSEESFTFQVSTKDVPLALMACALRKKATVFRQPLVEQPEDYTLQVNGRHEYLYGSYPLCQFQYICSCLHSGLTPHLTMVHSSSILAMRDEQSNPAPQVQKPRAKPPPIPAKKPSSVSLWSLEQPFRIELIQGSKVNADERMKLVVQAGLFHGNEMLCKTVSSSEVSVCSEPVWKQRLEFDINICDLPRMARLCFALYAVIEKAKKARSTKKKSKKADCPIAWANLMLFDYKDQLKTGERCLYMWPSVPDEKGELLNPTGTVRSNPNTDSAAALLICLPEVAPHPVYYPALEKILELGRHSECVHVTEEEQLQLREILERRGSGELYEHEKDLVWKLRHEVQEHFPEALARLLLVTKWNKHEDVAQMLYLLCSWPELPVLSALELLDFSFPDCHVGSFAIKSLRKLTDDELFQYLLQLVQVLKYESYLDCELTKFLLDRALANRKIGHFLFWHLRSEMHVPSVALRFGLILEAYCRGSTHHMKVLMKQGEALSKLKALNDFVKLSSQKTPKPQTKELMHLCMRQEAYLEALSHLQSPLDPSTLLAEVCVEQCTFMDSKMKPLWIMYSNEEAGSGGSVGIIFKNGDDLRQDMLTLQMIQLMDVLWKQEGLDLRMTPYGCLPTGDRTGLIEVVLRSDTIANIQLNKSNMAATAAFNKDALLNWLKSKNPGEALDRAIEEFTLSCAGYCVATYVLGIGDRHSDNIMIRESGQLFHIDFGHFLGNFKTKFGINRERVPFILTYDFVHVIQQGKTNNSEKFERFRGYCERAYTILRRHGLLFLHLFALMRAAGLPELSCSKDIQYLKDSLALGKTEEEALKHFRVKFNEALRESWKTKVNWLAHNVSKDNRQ
PI3K δ, sequence (P27986 whole entry partner): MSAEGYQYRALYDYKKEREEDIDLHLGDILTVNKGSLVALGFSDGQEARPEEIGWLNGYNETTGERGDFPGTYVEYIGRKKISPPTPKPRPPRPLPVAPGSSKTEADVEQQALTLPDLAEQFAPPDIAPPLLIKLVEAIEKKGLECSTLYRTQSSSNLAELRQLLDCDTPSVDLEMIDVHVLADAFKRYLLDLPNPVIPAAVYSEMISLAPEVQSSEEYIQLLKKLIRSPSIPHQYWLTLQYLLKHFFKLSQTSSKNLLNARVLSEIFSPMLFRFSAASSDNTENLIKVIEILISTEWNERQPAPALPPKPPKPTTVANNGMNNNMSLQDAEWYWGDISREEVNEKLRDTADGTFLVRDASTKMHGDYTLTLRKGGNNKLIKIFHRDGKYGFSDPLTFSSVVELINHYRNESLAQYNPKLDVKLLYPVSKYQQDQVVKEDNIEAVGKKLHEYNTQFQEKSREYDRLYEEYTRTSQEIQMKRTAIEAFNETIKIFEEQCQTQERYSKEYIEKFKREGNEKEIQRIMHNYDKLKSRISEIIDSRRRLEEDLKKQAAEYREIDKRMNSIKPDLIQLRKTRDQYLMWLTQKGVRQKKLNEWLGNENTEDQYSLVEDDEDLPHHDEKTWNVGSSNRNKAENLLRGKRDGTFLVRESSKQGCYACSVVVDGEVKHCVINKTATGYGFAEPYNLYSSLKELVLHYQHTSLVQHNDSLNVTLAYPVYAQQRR
T1 sequence (P42336 whole entry): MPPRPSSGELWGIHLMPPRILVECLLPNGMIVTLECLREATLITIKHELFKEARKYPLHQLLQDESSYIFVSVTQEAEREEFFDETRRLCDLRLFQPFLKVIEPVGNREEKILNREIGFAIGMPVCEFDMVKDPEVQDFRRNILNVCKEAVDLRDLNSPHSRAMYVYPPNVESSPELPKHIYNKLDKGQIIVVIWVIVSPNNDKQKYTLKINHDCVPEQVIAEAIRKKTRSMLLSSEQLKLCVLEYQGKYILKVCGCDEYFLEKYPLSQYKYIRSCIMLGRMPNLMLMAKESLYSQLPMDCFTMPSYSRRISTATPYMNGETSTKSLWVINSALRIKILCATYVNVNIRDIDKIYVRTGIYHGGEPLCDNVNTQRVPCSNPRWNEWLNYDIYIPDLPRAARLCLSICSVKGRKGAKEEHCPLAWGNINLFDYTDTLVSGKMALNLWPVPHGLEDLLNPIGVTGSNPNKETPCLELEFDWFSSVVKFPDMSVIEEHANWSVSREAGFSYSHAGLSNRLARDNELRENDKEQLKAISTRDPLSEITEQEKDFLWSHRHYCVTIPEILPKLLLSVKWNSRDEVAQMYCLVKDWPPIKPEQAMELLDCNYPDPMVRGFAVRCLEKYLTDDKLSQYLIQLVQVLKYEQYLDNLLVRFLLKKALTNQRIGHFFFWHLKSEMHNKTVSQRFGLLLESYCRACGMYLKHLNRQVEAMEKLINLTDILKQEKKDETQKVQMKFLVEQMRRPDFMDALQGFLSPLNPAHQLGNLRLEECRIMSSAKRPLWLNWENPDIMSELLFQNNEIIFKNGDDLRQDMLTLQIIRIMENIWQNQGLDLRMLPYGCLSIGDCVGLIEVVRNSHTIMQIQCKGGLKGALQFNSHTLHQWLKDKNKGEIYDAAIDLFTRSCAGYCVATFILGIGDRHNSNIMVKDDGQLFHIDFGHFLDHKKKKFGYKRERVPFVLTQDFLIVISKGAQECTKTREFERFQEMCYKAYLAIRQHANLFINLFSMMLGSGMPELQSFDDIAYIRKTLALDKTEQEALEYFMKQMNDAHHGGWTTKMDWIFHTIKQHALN
T1 sequence (P27986 whole entry partner): as the sequence (P27986 whole entry partner) above
T3 sequence (P42338 whole entry): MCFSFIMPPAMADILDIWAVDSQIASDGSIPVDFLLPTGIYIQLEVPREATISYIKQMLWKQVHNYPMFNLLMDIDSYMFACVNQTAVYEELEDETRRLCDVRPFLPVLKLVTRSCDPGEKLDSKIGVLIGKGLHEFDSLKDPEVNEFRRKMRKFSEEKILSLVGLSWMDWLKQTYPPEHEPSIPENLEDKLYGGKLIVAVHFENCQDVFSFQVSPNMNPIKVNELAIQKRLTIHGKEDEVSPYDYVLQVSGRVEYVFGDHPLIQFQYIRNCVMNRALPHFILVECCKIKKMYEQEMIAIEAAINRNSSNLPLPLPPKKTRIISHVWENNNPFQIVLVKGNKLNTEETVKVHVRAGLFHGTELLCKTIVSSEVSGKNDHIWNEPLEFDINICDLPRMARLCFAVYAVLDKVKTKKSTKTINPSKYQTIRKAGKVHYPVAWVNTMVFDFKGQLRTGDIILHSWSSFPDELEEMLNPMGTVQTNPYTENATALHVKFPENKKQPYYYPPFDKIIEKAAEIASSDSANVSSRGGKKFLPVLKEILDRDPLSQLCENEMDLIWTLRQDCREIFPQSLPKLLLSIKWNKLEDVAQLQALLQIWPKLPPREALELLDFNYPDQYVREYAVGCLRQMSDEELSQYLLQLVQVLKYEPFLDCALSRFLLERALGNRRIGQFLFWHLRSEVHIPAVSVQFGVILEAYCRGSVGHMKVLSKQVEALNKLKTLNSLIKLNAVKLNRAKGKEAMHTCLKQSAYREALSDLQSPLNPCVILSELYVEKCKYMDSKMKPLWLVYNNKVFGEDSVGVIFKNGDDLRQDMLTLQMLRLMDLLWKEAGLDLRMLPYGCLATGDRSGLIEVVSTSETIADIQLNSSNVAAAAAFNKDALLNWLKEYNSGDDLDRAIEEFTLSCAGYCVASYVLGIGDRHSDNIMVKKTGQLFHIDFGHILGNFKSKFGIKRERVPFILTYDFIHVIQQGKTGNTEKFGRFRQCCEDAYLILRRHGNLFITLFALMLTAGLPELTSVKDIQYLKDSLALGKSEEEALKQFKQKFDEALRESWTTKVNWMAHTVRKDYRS
T3 sequence (P27986 whole entry partner): as the sequence (P27986 whole entry partner) above

Structure (SMILES): Cc1cccc2cc(Cn3nc(I)c4c(N)ncnc43)n(C(C)C)c(=O)c12 [Compound 129]
- IC50 [1]: < 10000 nM

Structure (SMILES): CC(=O)Nc1nc2ccc(-c3nn(Cc4cc5cccc(C)c5c(=O)n4-c4ccccc4C)c4ncnc(N)c34)cc2s1 [Compound 168]
- IC50 [2]: < 10000 nM

Structure (SMILES): Cc1ccccc1-n1c(Cn2nc(I)c3c(N)ncnc32)cc2cccc(C)c2c1=O [Compound 104]
- IC50 [3]: < 1000 nM
- IC50 [4]: > 10000 nM

Structure (SMILES): Cc1cccnc1-n1c(Cn2nc(-c3cccc(O)c3)c3c(N)ncnc32)cc2ccccc2c1=O [Compound 94]
- IC50 [1]: < 1000 nM
- IC50 [3]: < 10000 nM

Structure (SMILES): Cc1cccc2cc(C(C)Nc3nc(Cl)ncc3N)n(-c3ccccc3)c(=O)c12 (stereo not drawn) [Compound 322]
- IC50 [2]: > 10000 nM
- IC50 [1]: > 10000 nM
- IC50 [3]: > 10000 nM
- IC50 [4]: > 10000 nM

Structure (SMILES): C=CC(=O)Nc1cccc(Nc2nc(Nc3ccc(OCCOC)cc3)ncc2F)c1 [AVL-292, N-(3-((5-fluoro-2-((4-(2-methoxyethoxy)phenyl)amino)pyrimidin-4-yl)amino)phenyl)acrylamide]
- Synergy Score (growth inhibition) [5]: A1 (A1=0.0001 to <1)
- Synergy Score (inhibition) [5]: A1 (A1=0.0001 to <1)
- CI50 (growth inhibition) [6]: S (S=0.01 to <0.5)
- CI50 (inhibition) [6]: S (S=0.01 to <0.5)
- Synergy Score (growth inhibition) [6]: A3 (A3=>3)
- Synergy Score (inhibition) [6]: A2 (A2=1 to <3)
- CI50 (growth inhibition) [7]: W (W=≧1)
- Synergy Score (growth inhibition) [7]: A1 (A1=0.0001 to <1)
- Synergy Score (inhibition) [7]: A1 (A1=0.0001 to <1)
- CI50 (growth inhibition) [8]: T (T=0.5 to <0.7)
- CI50 (inhibition) [8]: S (S=0.01 to <0.5)
- Synergy Score (growth inhibition) [8]: A3 (A3=>3)
- Synergy Score (inhibition) [8]: A2 (A2=1 to <3)
- CI50 (growth inhibition) [9]: T (T=0.5 to <0.7)
- CI50 (inhibition) [9]: T (T=0.5 to <0.7)
- Synergy Score (growth inhibition) [9]: A3 (A3=>3)
- Synergy Score (inhibition) [9]: A2 (A2=1 to <3)
- CI50 (growth inhibition) [10]: T (T=0.5 to <0.7)
- CI50 (inhibition) [10]: U (U=0.7 to <1)
- Synergy Score (growth inhibition) [10]: A2 (A2=1 to <3)
- Synergy Score (inhibition) [10]: A1 (A1=0.0001 to <1)
- CI50 (growth inhibition) [11]: T (T=0.5 to <0.7)
- CI50 (inhibition) [11]: T (T=0.5 to <0.7)
- Synergy Score (growth inhibition) [11]: A3 (A3=>3)
- Synergy Score (inhibition) [11]: A2 (A2=1 to <3)
- CI50 (growth inhibition) [12]: U (U=0.7 to <1)
- Synergy Score (growth inhibition) [12]: A1 (A1=0.0001 to <1)
- Synergy Score (inhibition) [12]: A1 (A1=0.0001 to <1)
- CI50 (growth inhibition) [13]: U (U=0.7 to <1)
- CI50 (inhibition) [13]: U (U=0.7 to <1)
- Synergy Score (growth inhibition) [13]: A1 (A1=0.0001 to <1)
- Synergy Score (inhibition) [13]: A1 (A1=0.0001 to <1)
- CI50 (growth inhibition) [14]: W (W=≧1)
- Synergy Score (growth inhibition) [14]: A1 (A1=0.0001 to <1)
- Synergy Score (inhibition) [14]: A1 (A1=0.0001 to <1)
- CI50 (growth inhibition) [15]: U (U=0.7 to <1)
- CI50 (inhibition) [15]: T (T=0.5 to <0.7)
- Synergy Score (growth inhibition) [15]: A2 (A2=1 to <3)
- Synergy Score (inhibition) [15]: A1 (A1=0.0001 to <1)
- CI50 (growth inhibition) [16]: S (S=0.01 to <0.5)
- CI50 (inhibition) [16]: S (S=0.01 to <0.5)
- Synergy Score (growth inhibition) [16]: A3 (A3=>3)
- Synergy Score (inhibition) [16]: A2 (A2=1 to <3)
- CI50 (growth inhibition) [17]: U (U=0.7 to <1)
- CI50 (inhibition) [17]: U (U=0.7 to <1)
- Synergy Score (growth inhibition) [17]: A2 (A2=1 to <3)
- Synergy Score (inhibition) [17]: A1 (A1=0.0001 to <1)
- CI50 (growth inhibition) [18]: T (T=0.5 to <0.7)
- CI50 (inhibition) [18]: W (W=≧1)
- Synergy Score (growth inhibition) [18]: A2 (A2=1 to <3)
- Synergy Score (inhibition) [18]: A1 (A1=0.0001 to <1)
- CI50 (growth inhibition) [19]: T (T=0.5 to <0.7)
- CI50 (inhibition) [19]: W (W=≧1)
- Synergy Score (growth inhibition) [19]: A2 (A2=1 to <3)
- Synergy Score (inhibition) [19]: A1 (A1=0.0001 to <1)
- CI50 (growth inhibition) [20]: U (U=0.7 to <1)
- Synergy Score (growth inhibition) [20]: A1 (A1=0.0001 to <1)
- Synergy Score (inhibition) [20]: A1 (A1=0.0001 to <1)
- CI50 (growth inhibition) [21]: T (T=0.5 to <0.7)
- CI50 (inhibition) [21]: S (S=0.01 to <0.5)
- Synergy Score (growth inhibition) [21]: A2 (A2=1 to <3)
- Synergy Score (inhibition) [21]: A2 (A2=1 to <3)
- CI50 (growth inhibition) [22]: S (S=0.01 to <0.5)
- CI50 (inhibition) [22]: S (S=0.01 to <0.5)
- Synergy Score (growth inhibition) [22]: A3 (A3=>3)
- Synergy Score (inhibition) [22]: A2 (A2=1 to <3)
- CI50 (growth inhibition) [23]: T (T=0.5 to <0.7)
- CI50 (inhibition) [23]: U (U=0.7 to <1)
- Synergy Score (growth inhibition) [23]: A2 (A2=1 to <3)
- Synergy Score (inhibition) [23]: A2 (A2=1 to <3)
- CI50 (growth inhibition) [24]: U (U=0.7 to <1)
- CI50 (inhibition) [24]: W (W=≧1)
- Synergy Score (growth inhibition) [24]: A1 (A1=0.0001 to <1)
- Synergy Score (inhibition) [24]: A1 (A1=0.0001 to <1)
